Test results taken from the NIST ThermoML archive (doi:10.1021/je060017i).

Experiments:
[1] = xn = mol fraction of the nth substance listed; details: 101 kPa, Liquid
[2] = excess molar enthalpy (molar enthalpy of mixing); xn = mol fraction of the nth substance listed; details: 101 kPa, Liquid, Flow calorimetry

CC1CCCO1 (configuration not stated) [2-methyltetrahydrofuran] + CCCCO
Details | excess molar enthalpy [kcal/mol] | mass density [kg/m3] | speed of sound [m/s] | viscosity [mPa·s]
[1], 283.15 K, x1 = 0.0447 | – | – | 1292.4 | –
[1], 283.15 K, x1 = 0.0518 | – | – | – | 3.231
[1], 283.15 K, x1 = 0.0539 | – | 820.03 | – | –
[1], 283.15 K, x1 = 0.1047 | – | 822.92 | – | –
[1], 283.15 K, x1 = 0.1048 | – | – | – | 2.67
[1], 283.15 K, x1 = 0.1154 | – | – | 1292.6 | –
[1], 283.15 K, x1 = 0.2068 | – | 828.51 | – | –
[1], 283.15 K, x1 = 0.2123 | – | – | – | 1.958
[1], 283.15 K, x1 = 0.2143 | – | – | 1291.5 | –
[1], 283.15 K, x1 = 0.2451 | – | – | 1291 | –
[1], 283.15 K, x1 = 0.3108 | – | 833.9 | – | –
[1], 283.15 K, x1 = 0.3159 | – | – | – | 1.507
[1], 283.15 K, x1 = 0.4147 | – | 839.04 | – | –
[1], 283.15 K, x1 = 0.4197 | – | – | – | 1.218
[1], 283.15 K, x1 = 0.4221 | – | – | 1286.8 | –
[1], 283.15 K, x1 = 0.4893 | – | 842.56 | – | –
[1], 283.15 K, x1 = 0.5195 | – | – | – | 1.013
[1], 283.15 K, x1 = 0.5204 | – | – | 1284 | –
[1], 283.15 K, x1 = 0.6172 | – | – | 1281.2 | –
[1], 283.15 K, x1 = 0.6195 | – | 848.41 | – | –
[1], 283.15 K, x1 = 0.6211 | – | – | – | 0.865
[1], 283.15 K, x1 = 0.7116 | – | – | – | 0.76
[1], 283.15 K, x1 = 0.7128 | – | – | 1278.1 | –
[1], 283.15 K, x1 = 0.724 | – | 852.97 | – | –
[1], 283.15 K, x1 = 0.8078 | – | – | 1275.2 | –
[1], 283.15 K, x1 = 0.8103 | – | – | – | 0.675
[1], 283.15 K, x1 = 0.8923 | – | 859.92 | – | –
[1], 283.15 K, x1 = 0.8952 | – | – | 1272.2 | –
[1], 283.15 K, x1 = 0.9246 | – | – | – | 0.607
[1], 283.15 K, x1 = 0.9364 | – | – | 1270.3 | –
[1], 283.15 K, x1 = 0.9585 | – | – | – | 0.584
[1], 298.15 K, x1 = 0.0341 | – | – | 1242.6 | –
[1], 298.15 K, x1 = 0.0518 | – | – | – | 2.212
[1], 298.15 K, x1 = 0.102 | – | 811.16 | – | –
[1], 298.15 K, x1 = 0.1048 | – | – | – | 1.914
[1], 298.15 K, x1 = 0.1054 | – | – | 1241.6 | –
[1], 298.15 K, x1 = 0.2068 | – | 816.38 | – | –
[1], 298.15 K, x1 = 0.2085 | – | – | 1238.8 | –
[1], 298.15 K, x1 = 0.2123 | – | – | – | 1.446
[1], 298.15 K, x1 = 0.2968 | – | – | 1235.7 | –
[1], 298.15 K, x1 = 0.3108 | – | 821.37 | – | –
[1], 298.15 K, x1 = 0.3159 | – | – | – | 1.145
[1], 298.15 K, x1 = 0.3535 | – | – | 1233.4 | –
[1], 298.15 K, x1 = 0.4152 | – | 826.08 | – | –
[1], 298.15 K, x1 = 0.4197 | – | – | – | 0.951
[1], 298.15 K, x1 = 0.4283 | – | – | 1230.3 | –
[1], 298.15 K, x1 = 0.4848 | – | 829.16 | – | –
[1], 298.15 K, x1 = 0.5058 | – | – | 1226.8 | –
[1], 298.15 K, x1 = 0.5195 | – | – | – | 0.806
[1], 298.15 K, x1 = 0.6075 | – | – | 1222.2 | –
[1], 298.15 K, x1 = 0.6191 | – | 834.74 | – | –
[1], 298.15 K, x1 = 0.6211 | – | – | – | 0.701
[1], 298.15 K, x1 = 0.7077 | – | – | 1217.6 | –
[1], 298.15 K, x1 = 0.7116 | – | – | – | 0.626
[1], 298.15 K, x1 = 0.7245 | – | 838.88 | – | –
[1], 298.15 K, x1 = 0.8103 | – | – | – | 0.563
[1], 298.15 K, x1 = 0.8111 | – | – | 1212.6 | –
[1], 298.15 K, x1 = 0.8157 | – | 842.28 | – | –
[1], 298.15 K, x1 = 0.8911 | – | 845.05 | – | –
[1], 298.15 K, x1 = 0.8947 | – | – | 1208.3 | –
[1], 298.15 K, x1 = 0.9246 | – | – | – | 0.507
[1], 298.15 K, x1 = 0.9337 | – | – | 1206.1 | –
[1], 298.15 K, x1 = 0.9585 | – | – | – | 0.502
[1], 313.15 K, x1 = 0.0518 | – | – | – | 1.555
[1], 313.15 K, x1 = 0.0519 | – | – | 1184.6 | –
[1], 313.15 K, x1 = 0.1038 | – | 799.46 | – | –
[1], 313.15 K, x1 = 0.1048 | – | – | – | 1.361
[1], 313.15 K, x1 = 0.1237 | – | – | 1181.8 | –
[1], 313.15 K, x1 = 0.2098 | – | 804.34 | – | –
[1], 313.15 K, x1 = 0.2123 | – | – | – | 1.085
[1], 313.15 K, x1 = 0.2168 | – | – | 1177.7 | –
[1], 313.15 K, x1 = 0.3097 | – | – | 1172.9 | –
[1], 313.15 K, x1 = 0.3139 | – | 808.86 | – | –
[1], 313.15 K, x1 = 0.3159 | – | – | – | 0.896
[1], 313.15 K, x1 = 0.4133 | – | – | 1167.2 | –
[1], 313.15 K, x1 = 0.4135 | – | 813 | – | –
[1], 313.15 K, x1 = 0.4197 | – | – | – | 0.759
[1], 313.15 K, x1 = 0.4906 | – | 816.02 | – | –
[1], 313.15 K, x1 = 0.511 | – | – | 1161.3 | –
[1], 313.15 K, x1 = 0.5195 | – | – | – | 0.651
[1], 313.15 K, x1 = 0.6175 | – | 820.8 | – | –
[1], 313.15 K, x1 = 0.6211 | – | – | – | 0.574
[1], 313.15 K, x1 = 0.6561 | – | – | 1152.6 | –
[1], 313.15 K, x1 = 0.7116 | – | – | – | 0.518
[1], 313.15 K, x1 = 0.7256 | – | 824.59 | – | –
[1], 313.15 K, x1 = 0.7265 | – | – | 1148.3 | –
[1], 313.15 K, x1 = 0.8103 | – | – | – | 0.473
[1], 313.15 K, x1 = 0.8151 | – | – | 1142.7 | –
[1], 313.15 K, x1 = 0.8172 | – | 827.71 | – | –
[1], 313.15 K, x1 = 0.8909 | – | 830.17 | – | –
[1], 313.15 K, x1 = 0.8995 | – | – | 1137.1 | –
[1], 313.15 K, x1 = 0.9246 | – | – | – | 0.432
[1], 313.15 K, x1 = 0.9476 | – | – | 1133.5 | –
[1], 313.15 K, x1 = 0.9585 | – | – | – | 0.425
[2], 283.15 K, x1 = 0.054 | 0.0237 | – | – | –
[2], 283.15 K, x1 = 0.104 | 0.0492 | – | – | –
[2], 283.15 K, x1 = 0.206 | 0.092 | – | – | –
[2], 283.15 K, x1 = 0.308 | 0.131 | – | – | –
[2], 283.15 K, x1 = 0.411 | 0.154 | – | – | –
[2], 283.15 K, x1 = 0.51 | 0.166 | – | – | –
[2], 283.15 K, x1 = 0.609 | 0.166 | – | – | –
[2], 283.15 K, x1 = 0.708 | 0.151 | – | – | –
[2], 283.15 K, x1 = 0.806 | 0.121 | – | – | –
[2], 283.15 K, x1 = 0.907 | 0.0696 | – | – | –
[2], 283.15 K, x1 = 0.953 | 0.038 | – | – | –
[2], 298.15 K, x1 = 0.054 | 0.0263 | – | – | –
[2], 298.15 K, x1 = 0.104 | 0.0526 | – | – | –
[2], 298.15 K, x1 = 0.206 | 0.102 | – | – | –
[2], 298.15 K, x1 = 0.308 | 0.14 | – | – | –
[2], 298.15 K, x1 = 0.411 | 0.166 | – | – | –
[2], 298.15 K, x1 = 0.51 | 0.179 | – | – | –
[2], 298.15 K, x1 = 0.609 | 0.178 | – | – | –
[2], 298.15 K, x1 = 0.708 | 0.162 | – | – | –
[2], 298.15 K, x1 = 0.806 | 0.129 | – | – | –
[2], 298.15 K, x1 = 0.907 | 0.0741 | – | – | –
[2], 298.15 K, x1 = 0.953 | 0.0406 | – | – | –
[2], 313.15 K, x1 = 0.054 | 0.0277 | – | – | –
[2], 313.15 K, x1 = 0.104 | 0.0559 | – | – | –
[2], 313.15 K, x1 = 0.206 | 0.109 | – | – | –
[2], 313.15 K, x1 = 0.308 | 0.151 | – | – | –
[2], 313.15 K, x1 = 0.411 | 0.179 | – | – | –
[2], 313.15 K, x1 = 0.51 | 0.193 | – | – | –
[2], 313.15 K, x1 = 0.609 | 0.192 | – | – | –
[2], 313.15 K, x1 = 0.708 | 0.174 | – | – | –
[2], 313.15 K, x1 = 0.806 | 0.138 | – | – | –
[2], 313.15 K, x1 = 0.907 | 0.0786 | – | – | –
[2], 313.15 K, x1 = 0.953 | 0.0428 | – | – | –
